Source: PMC4055459, “Imatinib Treatment Causes Substantial Transcriptional Changes in Adult Schistosoma mansoni In Vitro Exhibiting Pleiotropic Effects” (PLoS Neglected Tropical Diseases, 2014)

Target: T1, SmAbl2-TK (SmAbl2) (Schistosoma mansoni, UniProt D1H0Y8)
T1 construct: gene abl2; capped cRNA injected into Xenopus laevis stage VI oocytes
T1 sequence (D1H0Y8 283-538 limits assumed): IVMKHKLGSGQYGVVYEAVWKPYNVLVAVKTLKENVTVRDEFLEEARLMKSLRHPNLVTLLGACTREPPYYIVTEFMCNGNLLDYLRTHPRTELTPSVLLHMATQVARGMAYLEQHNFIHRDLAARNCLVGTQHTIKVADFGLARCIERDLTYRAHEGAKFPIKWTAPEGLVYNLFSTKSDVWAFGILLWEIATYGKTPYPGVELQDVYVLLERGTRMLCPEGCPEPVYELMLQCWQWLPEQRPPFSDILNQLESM
Assay: germinal vesicle breakdown (GVBD) assay, cRNA-injected Xenopus oocytes
Format: cell-based
Details: remaining GVBD-inducing activity; ND96, 19 °C, 18 h after injection, pools of 10 oocytes

## CO[C@H]1[C@@H](OC)C[C@H](C)[C@@H](OC)C2=CC(=O)C=C(NC(=O)/C(C)=C/C=C\[C@H](OC)[C@@H](OC(N)=O)/C(C)=C/[C@@H]1C)C2=O [Herbimycin A]
  % GVBD at 10 μM: 90%
